Results on 63 molecules are retold here after patent US20120190669A1, “OXINDOLE COMPOUNDS” (CYLENE PHARMACEUTICALS, INC., priority 2008, published 2012).

What is called IC50 is the concentration that gives 50% inhibition. The inhibition is the drop in the measured response relative to a control, in per cent.

The target in the test is recombinant PIM-1 (Homo sapiens, UniProt P11309). In words: PIM-1 kinase assay (radiometric, 15 uM ATP, DMSO 4%). Type of test: biochemical. As to the method:
The following procedure was used to assay the PIM-1 kinase activity of compounds of the invention. Other methods for assaying PIM-1 and other PIM kinases, as well as methods to assay for activity against the various kinases in FIG. 1, are known in the art.
(specific activity approx. 500 cpm/pmol), DMSO 4% and test inhibitor compound at the required concentration. The reaction was initiated by the addition of the Magnesium ATP mixture. After 40 min incubation at 23° C., the reactions were quenched by the addition of 100 ul 0.75% Phosphoric acid, and the labeled peptide collected by filtration through a phosphocellulose filter plate. The plate was washed 4 times with 0.075% phosphoric acid (100 ul per well) and then, after the addition of scintillation fluid (20 ul per well), the counts were measured by a scintillation counter.

[1] abbreviates: Table 3, DMSO 4%, read-out: PIM1: IC50 (DMSO 4%).
Setting [2] is: Table 1, % inhibition at the high dose (2 micromolar) in a single screening assay, 15 μM ATP.
The mark [3] stands for this setting: Table 1, given for compounds with IC50 at or below 2 micromolar, 15 uM ATP, read-out: PIM-1 IC50.

The structures appear in SMILES notation. Read-outs that look alike come from different tables or passages of the source.

recombinant PIM-1, sequence (P11309 whole entry): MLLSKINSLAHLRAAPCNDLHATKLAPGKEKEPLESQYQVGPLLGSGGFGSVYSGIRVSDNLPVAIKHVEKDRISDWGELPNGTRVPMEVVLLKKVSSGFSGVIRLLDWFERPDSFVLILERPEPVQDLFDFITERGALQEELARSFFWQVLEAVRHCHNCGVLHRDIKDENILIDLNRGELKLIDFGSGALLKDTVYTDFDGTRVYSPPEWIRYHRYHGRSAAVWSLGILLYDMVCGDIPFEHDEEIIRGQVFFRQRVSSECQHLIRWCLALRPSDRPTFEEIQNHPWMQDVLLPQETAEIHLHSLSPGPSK

Turning to `CN1CCCN(C(=O)c2cccc(-c3ccc(/C(=C4/C(=O)Nc5ccc(Cl)cc54)C4CC4)o3)c2)CC1`, under setting [1], the IC50 was over 1100 nM.

`CN1CCN(c2ccc(-c3ccc(/C=C4\C(=O)Nc5ccc(Cl)cc54)o3)cn2)CC1`: the half-maximal inhibitory concentration (IC50) under setting [1] is under 1000 nM.

Regarding `CN1CCCN(C(=O)c2ccc(Cl)c(-c3ccc(/C=C4/C(=O)Nc5ccc(F)cc54)o3)c2)CC1`, the IC50 under setting [1] was under 1000 nM.

`CN1C(=O)/C(=C/c2ccc(-c3cccc(C(=O)O)c3)o2)c2ccccc21` [Compound 2]: the inhibition at 2 µM under setting [2] was found to be 31.6%.

Regarding `CCN(CC)CCNC(=O)c1cccc(-c2ccc(/C=C3/C(=O)Nc4ccccc43)o2)c1` [Compound 4], the IC50 under setting [3] was under 1000 nM.

`COC(=O)c1ccc2c(c1)/C(=C\c1ccc(-c3cccc(C(=O)NCCN4CCCC4)c3)o1)C(=O)N2` [Compound 5]: the IC50 under setting [3] is under 1000 nM.

Regarding `O=C1Nc2ccc(C(=O)O)cc2/C1=C\c1ccc(-c2cccc(C(=O)NCCN3CCCC3)c2)o1` [Compound 6], under setting [2], the inhibition at 2 µM turned out to be 32.3%.

With `COCCNC(=O)c1ccc2c(c1)/C(=C\c1ccc(-c3cccc(C(=O)NCCN4CCCC4)c3)o1)C(=O)N2` [Compound 7], the inhibition at 2 µM under setting [2] came out at 32.7%.

Turning to `O=C1Nc2ccc(C(=O)NCc3ccccc3)cc2/C1=C\c1ccc(-c2cccc(C(=O)NCCN3CCCC3)c2)o1` [Compound 8], under setting [2], the inhibition at 2 µM was found to be 11.5%.

For `O=C1Nc2ccc(C(=O)NC3CC3)cc2/C1=C\c1ccc(-c2cccc(C(=O)NCCN3CCCC3)c2)o1` [Compound 9], under setting [2], the inhibition at 2 µM was 37.2%.

With `O=C1Nc2ccc(F)cc2/C1=C\c1ccc(-c2cccc(C(=O)O)c2)o1` [Compound 10], the IC50 under setting [3] is under 2000 nM.

On to `O=C1Nc2ccccc2/C1=C\c1ccc(-c2ccc(Cl)c(C(=O)NCCN3CCCC3)c2)o1` [Compound 11], for which, under setting [2], the inhibition at 2 µM is 5.6%.

Consider `O=C1Nc2ccc(F)cc2/C1=C\c1ccc(-c2ccc(Cl)c(C(=O)NCCN3CCCC3)c2)o1` [Compound 12], for which the “PIM-1 Inhibition @ 15 μM ATP” value under setting [2] is recorded as 35.20%.

Take `O=C1Nc2ccc(F)cc2/C1=C\c1ccc(-c2cc(C(=O)NCCN3CCCC3)ccc2Cl)o1` [Compound 13]: the IC50 under setting [3] was under 2000 nM.

Take `O=C1Nc2ccccc2/C1=C\c1ccc(-c2cc(C(=O)NCCN3CCCC3)ccc2Cl)o1` [Compound 14]: the IC50 under setting [3] was under 2000 nM.

For the molecule `COCCNC(=O)c1cccc(-c2ccc(/C=C3/C(=O)Nc4ccc(F)cc43)o2)c1` [Compound 17], the inhibition at 2 µM under setting [2] worked out at 49.6%.

With `Cc1cnc(CNC(=O)c2cccc(-c3ccc(/C=C4/C(=O)Nc5ccc(F)cc54)o3)c2)cn1` [Compound 18], the inhibition at 2 µM under setting [2] is 42.3%.

Take `O=C1Nc2ccc(F)cc2/C1=C\c1ccc(-c2cccc(C(=O)N3CCOCC3)c2)o1` [Compound 19]: the inhibition at 2 µM under setting [2] stood at 42.2%.

Take `O=C1Nc2ccc(F)cc2/C1=C\c1ccc(-c2cccc(C(=O)NC3CC3)c2)o1` [Compound 20]: the inhibition at 2 µM under setting [2] was 46%.

Take `O=C1Nc2ccc(F)cc2/C1=C\c1ccc(-c2cccc(C(=O)NCc3ccncc3)c2)o1` [Compound 21]: under setting [3], the IC50 was under 2000 nM.

Regarding `Cn1cncc1CNC(=O)c1cccc(-c2ccc(/C=C3/C(=O)Nc4ccc(F)cc43)o2)c1` [Compound 22], under setting [3], the concentration for half-maximal inhibition (IC50) was under 1000 nM.

In the case of `O=C1CN(C(=O)c2cccc(-c3ccc(/C=C4/C(=O)Nc5ccccc54)o3)c2)CCN1` [Compound 23], the inhibition at 2 µM under setting [2] was -14.2%.

`CN(C)CCNC(=O)c1cc(-c2ccc(/C=C3/C(=O)Nc4ccccc43)o2)ccc1Cl` [Compound 24]: the inhibition at 2 µM under setting [2] came to 36.7%.

Consider `CN1CC(NC(=O)c2cc(-c3ccc(/C=C4/C(=O)Nc5ccccc54)o3)ccc2Cl)C1` [Compound 25], for which the inhibition at 2 µM under setting [2] is -15.8%.

In the case of `CN1CCN(C(=O)c2cc(-c3ccc(/C=C4/C(=O)Nc5ccccc54)o3)ccc2Cl)CC1` [Compound 26], under setting [2], the inhibition at 2 µM was -18.8%.

For `CN1CCC(NC(=O)c2cc(-c3ccc(/C=C4/C(=O)Nc5ccccc54)o3)ccc2Cl)CC1` [Compound 27], the inhibition at 2 µM under setting [2] was -16.9%.

On to `O=C1Nc2ccccc2/C1=C\c1ccc(-c2ccc(Cl)c(C(=O)NCCC3CCCN3)c2)o1` (stereo not drawn) [Compound 28], for which, under setting [2], the inhibition at 2 µM was -37.6%.

In the case of `O=C1Nc2ccccc2/C1=C\c1ccc(-c2ccc(Cl)c(C(=O)NCC3CCCN3)c2)o1` (stereo not drawn) [Compound 29], the inhibition at 2 µM under setting [2] is -33.4%.

With `COC(=O)c1ccccc1-c1ccc(/C=C2/C(=O)Nc3ccc(F)cc32)o1` [Compound 30], the inhibition at 2 µM under setting [2] is -6.8%.

In the case of `O=C1Nc2ccccc2/C1=C\c1ccc(-c2ccccc2C(=O)O)o1` [Compound 31], the inhibition at 2 µM under setting [2] is 11.4%.

Consider `CCN1CCCC1CNC(=O)c1ccc(-c2ccc(/C=C3/C(=O)Nc4ccccc43)o2)cc1` (stereo not drawn) [Compound 32], for which the IC50 under setting [3] is under 1000 nM.

Regarding `CN1CCCC1N(C)C(=O)c1ccc(-c2ccc(/C=C3/C(=O)Nc4ccccc43)o2)cc1` (stereo not drawn) [Compound 33], the IC50 under setting [3] is under 1000 nM.

`CN(CCN1CCCC1)C(=O)c1ccc(-c2ccc(/C=C3/C(=O)Nc4ccccc43)o2)cc1` [Compound 34]: the IC50 under setting [3] was under 1000 nM.

On to `CN1CCCC(NC(=O)c2ccc(-c3ccc(/C=C4/C(=O)Nc5ccccc54)o3)cc2)C1` (stereo not drawn) [Compound 35], for which, under setting [3], the IC50 is under 1000 nM.

`Cn1cncc1CNC(=O)c1ccc(-c2ccc(/C=C3/C(=O)Nc4ccccc43)o2)cc1` [Compound 36]: the IC50 under setting [3] was under 1000 nM.

On to `CN1CCCCC1CNC(=O)c1ccc(-c2ccc(/C=C3/C(=O)Nc4ccccc43)o2)cc1` (stereo not drawn) [Compound 37], for which the IC50 under setting [3] was under 2000 nM.

On to `CN(C)C1CCN(C(=O)c2ccc(-c3ccc(/C=C4/C(=O)Nc5ccccc54)o3)cc2)CC1` [Compound 38], for which the IC50 under setting [3] is under 2000 nM.

As to `O=C1Nc2cc(F)ccc2/C1=C\c1ccc(-c2cccc(C(=O)NCCN3CCCC3)c2)o1` [Compound 39], the inhibition at 2 µM under setting [2] was found to be 21%.

On to `CN1CCCCC1CNC(=O)c1cccc(-c2ccc(/C=C3/C(=O)Nc4cc(F)ccc43)o2)c1` (stereo not drawn) [Compound 40], for which the inhibition at 2 µM under setting [2] turned out to be 33.9%.

As to `O=C1Nc2c(Cl)cccc2/C1=C\c1ccc(-c2cccc(C(=O)NCCN3CCCC3)c2)o1` [Compound 41], the inhibition at 2 µM under setting [2] came to 19%.

As to `CN1CCCCC1CNC(=O)c1cccc(-c2ccc(/C=C3/C(=O)Nc4c(Cl)cccc43)o2)c1` (stereo not drawn) [Compound 42], under setting [2], the inhibition at 2 µM came to 9.73%.

Take `O=C1Nc2ccc(Cl)cc2/C1=C\c1ccc(-c2cccc(C(=O)NCCN3CCCC3)c2)o1` [Compound 43]: the inhibition at 2 µM under setting [2] amounted to 32.7%.

For `CN1CCCCC1CNC(=O)c1cccc(-c2ccc(/C=C3/C(=O)Nc4ccc(Cl)cc43)o2)c1` (stereo not drawn) [Compound 44], the inhibition at 2 µM under setting [2] was -9.22%.

In the case of `CN1CCCCC1CNC(=O)c1cccc(-c2ccc(/C=C3/C(=O)Nc4cccc(Br)c43)o2)c1` (stereo not drawn) [Compound 45], under setting [2], the inhibition at 2 µM is -21.9%.

Regarding `CN1CCCCC1CNC(=O)c1cccc(-c2ccc(/C=C3/C(=O)Nc4ccc(C#N)cc43)o2)c1` (stereo not drawn) [Compound 46], the inhibition at 2 µM under setting [2] was -0.36%.

As to `O=C1Nc2ccc(C(F)(F)F)cc2/C1=C\c1ccc(-c2cccc(C(=O)NCCN3CCCC3)c2)o1` [Compound 47], under setting [2], the inhibition at 2 µM was determined as 22.9%.

Turning to `CN1CCCCC1CNC(=O)c1cccc(-c2ccc(/C=C3/C(=O)Nc4ccc(C(F)(F)F)cc43)o2)c1` (stereo not drawn) [Compound 48], under setting [2], the inhibition at 2 µM was -4.56%.

`O=C1Nc2cc(C(F)(F)F)ccc2/C1=C\c1ccc(-c2cccc(C(=O)NCCN3CCCC3)c2)o1` [Compound 49]: the inhibition at 2 µM under setting [2] amounted to 2.7%.

For `O=C1Nc2c(cccc2C(F)(F)F)/C1=C\c1ccc(-c2cccc(C(=O)NCCN3CCCC3)c2)o1` [Compound 50], the inhibition at 2 µM under setting [2] turned out to be 8.16%.

For `CN1CCCCC1CNC(=O)c1cccc(-c2ccc(/C=C3/C(=O)Nc4c3cccc4C(F)(F)F)o2)c1` (stereo not drawn) [Compound 51], the inhibition at 2 µM under setting [2] turned out to be 2.32%.

Turning to `O=C1Nc2ccc([N+](=O)[O-])cc2/C1=C\c1ccc(-c2cccc(C(=O)NCCN3CCCC3)c2)o1` [Compound 52], the inhibition at 2 µM under setting [2] was determined as 20.4%.

Consider `CN1CCCCC1CNC(=O)c1cccc(-c2ccc(/C=C3/C(=O)Nc4ccc([N+](=O)[O-])cc43)o2)c1` (stereo not drawn) [Compound 53], for which the inhibition at 2 µM under setting [2] stood at 23.5%.

On to `O=C1Nc2ccccc2/C1=C\c1ccc(-c2ccccc2C(=O)NCCN2CCCC2)o1` [Compound 54], for which, under setting [2], the inhibition at 2 µM was determined as 3.52%.

Turning to `CN(CCN1CCCC1)C(=O)c1ccccc1-c1ccc(/C=C2/C(=O)Nc3ccccc32)o1` [Compound 55], the inhibition at 2 µM under setting [2] stood at 2.91%.

On to `CN1CCCC(NC(=O)c2ccccc2-c2ccc(/C=C3/C(=O)Nc4ccccc43)o2)C1` (stereo not drawn) [Compound 56], for which, under setting [2], the inhibition at 2 µM turned out to be 13.8%.

As for `CCN1CCCC1CNC(=O)c1cccc(-c2ccc(/C=C3/C(=O)Nc4ccccc43)o2)c1` (stereo not drawn) [Compound 57], the inhibition at 2 µM under setting [2] was found to be 10.6%.

As to `CN1CCC(N(C)C(=O)c2ccccc2-c2ccc(/C=C3/C(=O)Nc4ccccc43)o2)C1` (stereo not drawn) [Compound 58], the inhibition at 2 µM under setting [2] is 7.15%.

For `Cn1cncc1CNC(=O)c1ccccc1-c1ccc(/C=C2/C(=O)Nc3ccccc32)o1` [Compound 59], the inhibition at 2 µM under setting [2] was -4.35%.

Consider `CN1CCCCC1CNC(=O)c1ccccc1-c1ccc(/C=C2/C(=O)Nc3ccccc32)o1` (stereo not drawn) [Compound 60], for which the inhibition at 2 µM under setting [2] is 0.33%.

Turning to `CN(C)C1CCN(C(=O)c2ccccc2-c2ccc(/C=C3/C(=O)Nc4ccccc43)o2)CC1` [Compound 61], the inhibition at 2 µM under setting [2] was -2.65%.

Turning to `O=C1Nc2ccc(F)cc2/C1=C\c1ccc(-c2ccccc2C(=O)NCCN2CCCC2)o1` [Compound 62], the inhibition at 2 µM under setting [2] amounted to 0.28%.

As for `CN1CCCC(NC(=O)c2ccccc2-c2ccc(/C=C3/C(=O)Nc4ccc(F)cc43)o2)C1` (stereo not drawn) [Compound 63], the inhibition at 2 µM under setting [2] is 10.3%.

With `CN1CCC(N(C)C(=O)c2ccccc2-c2ccc(/C=C3/C(=O)Nc4ccc(F)cc43)o2)C1` (stereo not drawn) [Compound 64], the inhibition at 2 µM under setting [2] amounted to 18.2%.
